Assay [1] addresses Human RET kinase cytoplasmic domain (Homo sapiens (Human), UniProt P07949). Description: RET kinase enzymatic assay. In kind it is biochemical. As to conditions: human RET kinase enzymatic assay (Table 2). As for the experimental part: RET Kinase Enzymatic Assay
GST-RET was purified using glutathione sepharose chromatography. The RET kinase enzymatic assay was performed in a total volume of 10 uL with increasing concentrations of RET kinase inhibitor as a singlet in a 384 well format as follows: RET inhibitor compound plates are prepared by adding 100 nL of RET inhibitor at different concentrations to a 384-well plate. 5 μL/well of a 2× enzyme mix (50 mM HEPES (4-(2-hydroxyethyl)-1-piperazineethanesulfonic acid); 1 mM CHAPS (3[(3-cholamidopropyl)dimethylammonio]-1-propanesulfonate); 0.1 mg/mL BSA (bovine serum albumin); 1 mM DTT (dithiothreitol); 0.2 nM RET kinase) was added to the 384-well plate and incubated for 30 minutes at 23° C.

The subject of a further assay is TT cells. Description: RET kinase cell-based proliferation assay. Details: species or system human. Particulars: 192 h, read-out: RET IC50. The text has this:
RET Kinase Cell-Based Proliferation Assay

In assay [2] the target is constitutive RET kinase phosphorylation in TT cells (Homo sapiens (Human), UniProt P07949, C634W). Description: RET kinase cell-based mechanistic assay.
Sequence of constitutive RET kinase phosphorylation in TT cells (P07949 29-1114 C634W): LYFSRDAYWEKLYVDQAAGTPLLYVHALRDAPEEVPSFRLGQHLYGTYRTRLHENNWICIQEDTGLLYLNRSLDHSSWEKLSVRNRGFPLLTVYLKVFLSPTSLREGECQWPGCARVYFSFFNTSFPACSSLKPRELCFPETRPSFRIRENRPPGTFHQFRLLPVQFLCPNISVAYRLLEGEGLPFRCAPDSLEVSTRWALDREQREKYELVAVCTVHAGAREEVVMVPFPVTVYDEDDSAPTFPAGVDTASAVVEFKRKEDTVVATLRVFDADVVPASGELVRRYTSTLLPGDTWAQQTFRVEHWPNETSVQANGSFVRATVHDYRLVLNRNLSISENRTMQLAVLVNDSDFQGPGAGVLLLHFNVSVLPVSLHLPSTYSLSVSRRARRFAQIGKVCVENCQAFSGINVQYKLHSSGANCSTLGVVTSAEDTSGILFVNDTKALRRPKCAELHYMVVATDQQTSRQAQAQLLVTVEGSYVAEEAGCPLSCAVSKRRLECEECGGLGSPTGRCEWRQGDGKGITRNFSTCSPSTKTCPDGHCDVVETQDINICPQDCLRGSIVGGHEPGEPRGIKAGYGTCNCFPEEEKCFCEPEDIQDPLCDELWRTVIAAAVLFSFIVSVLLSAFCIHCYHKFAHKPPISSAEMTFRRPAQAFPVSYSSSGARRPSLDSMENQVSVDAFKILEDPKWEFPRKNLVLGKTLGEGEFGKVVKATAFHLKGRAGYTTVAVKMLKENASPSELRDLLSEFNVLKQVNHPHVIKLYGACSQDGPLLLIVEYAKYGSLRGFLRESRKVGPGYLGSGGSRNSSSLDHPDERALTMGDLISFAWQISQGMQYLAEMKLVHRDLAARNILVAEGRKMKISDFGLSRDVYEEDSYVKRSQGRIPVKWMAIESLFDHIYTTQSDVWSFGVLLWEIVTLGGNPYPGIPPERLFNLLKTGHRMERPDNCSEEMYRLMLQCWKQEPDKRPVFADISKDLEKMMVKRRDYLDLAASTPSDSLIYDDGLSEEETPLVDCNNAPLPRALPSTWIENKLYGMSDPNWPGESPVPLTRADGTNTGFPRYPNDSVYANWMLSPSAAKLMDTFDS
Method: RET Kinase Cell-Based Mechanistic Assay
The potency of the compound of the invention was tested for its ability to inhibit constitutive RET kinase phosphorylation in cell-based assay. […] 1.0E5 TT cells/well were plated in a 96-well cell culture plate and allowed to adhere overnight. […] IC50s were fitted using GraphPad Prism to a sigmoidal dose response.
Where [3] appears, read: human RET kinase cell-based proliferation assay, TT cells, eight days (Table 4).

Where a name gives a salt, the structure may show the parent alone. Read-outs that look alike come from different tables or passages of the source.

As a reminder, the IC50 is the concentration that gives 50% inhibition.

Sequence of Human RET kinase cytoplasmic domain (P07949 658-1114): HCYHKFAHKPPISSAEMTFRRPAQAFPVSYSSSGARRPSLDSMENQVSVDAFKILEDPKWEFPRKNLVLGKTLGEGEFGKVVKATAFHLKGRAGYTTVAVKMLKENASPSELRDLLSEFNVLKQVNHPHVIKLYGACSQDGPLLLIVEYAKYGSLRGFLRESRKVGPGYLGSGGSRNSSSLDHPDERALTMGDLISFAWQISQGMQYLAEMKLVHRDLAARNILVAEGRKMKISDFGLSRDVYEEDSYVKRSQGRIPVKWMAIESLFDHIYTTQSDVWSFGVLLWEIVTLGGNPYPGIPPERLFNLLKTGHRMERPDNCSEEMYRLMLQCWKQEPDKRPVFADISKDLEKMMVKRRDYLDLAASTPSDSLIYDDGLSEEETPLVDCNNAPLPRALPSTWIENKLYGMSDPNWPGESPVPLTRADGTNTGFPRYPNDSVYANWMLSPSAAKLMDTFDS

Compound `CCOc1cc(-c2ccc(CC(=O)Nc3cnc(C(C)(C)O)c(C(F)(F)F)c3)c(F)c2)c[nH]c1=O` [Example 1, 2-(4-(5-Ethoxy-6-oxo-1,6-dihydropyridin-3-yl)-2-fluorophenyl)-N-(6-(2-hydroxypropan-2-yl)-5-(trifluoromethyl)pyridin-3-yl)acetamide] had a 50% inhibitory concentration (IC50) in assay [1] of under 100 nM.
`CCOc1ncc(NC(=O)Cc2ccc(-c3c[nH]c(=O)c(OCC)c3)cc2F)cc1C(F)(F)F` [Example 2, N-(6-Ethoxy-5-(trifluoromethyl)pyridin-3-yl)-2-(4-(5-ethoxy-6-oxo-1,6-dihydropyridin-3-yl)-2-fluorophenyl)acetamide hydrochloride] yielded a concentration for half-maximal inhibition (IC50) in assay [1] of under 100 nM.
Regarding `CCOc1cc(-c2ccc(CC(=O)Nc3ccc(CC(C)(C)CO)c(C(F)(F)F)c3)c(F)c2)c[nH]c1=O` [Example 5, 2-(4-(5-Ethoxy-6-oxo-1,6-dihydropyridin-3-yl)-2-fluorophenyl)-N-(4-(3-hydroxy-2,2-dimethylpropyl)-3-(trifluoromethyl)phenyl)acetamide], the 50% inhibitory concentration (IC50) in assay [1] was under 100 nM.
With `CCOc1cc(-c2ccc(CC(=O)Nc3ccc(CC(C)(C)CO)c(C(F)(F)F)c3)cc2F)c[nH]c1=O` [Example 6, 2-(4-(5-Ethoxy-6-oxo-1,6-dihydropyridin-3-yl)-3-fluorophenyl)-N-(4-(3-hydroxy-2,2-dimethylpropyl)-3-(trifluoromethyl)phenyl)acetamide], in assay [1], the IC50 was under 100 nM.
Consider `CCOc1cc(=O)[nH]cc1-c1ccc(CC(=O)Nc2ccc(C#N)c(C(F)(F)F)c2)cc1F` [Example 7, N-(4-Cyano-3-(trifluoromethyl)phenyl)-2-(4-(4-ethoxy-6-oxo-1,6-dihydropyridin-3-yl)-3-fluorophenyl)acetamide], for which, in assay [1], the IC50 is under 100 nM.
In assay [1], `CCOc1cc(-c2ccc(CC(=O)Nc3ccc(C#N)c(C(F)(F)F)c3)c(F)c2)c[nH]c1=O` [Example 9, N-(4-Cyano-3-(trifluoro-methyl)phenyl)-2-(4-(5-ethoxy-6-oxo-1,6-dihydro-pyridin-3-yl)-2-fluorophenyl)acetamide] displayed a 50% inhibitory concentration (IC50) of under 100 nM.
Consider `CCOc1cc(=O)[nH]cc1-c1ccc(CC(=O)Nc2cnc(OCCN(C)C)c(C(F)(F)F)c2)c(F)c1` [Example 10, N-(6-(2-(Dimethylamino)ethoxy)-5-(trifluoromethyl)pyridin-3-yl)-2-(4-(4-ethoxy-6-oxo-1,6-dihydropyridin-3-yl)-2-fluorophenyl)acetamide dihydrochloride], for which the concentration for half-maximal inhibition (IC50) in assay [1] is 100 to 500 nM; in the assay with TT cells (Homo sapiens, TT), 500 to 10000 nM; in assay [2], 500 to 10000 nM.
Turning to `CCOc1cc(-c2ccc(CC(=O)Nc3cc(-n4cnc(C)c4)cc(C(F)(F)F)c3)c(F)c2)c[nH]c1=O` [Example 11, 2-(4-(5-Ethoxy-6-oxo-1,6-dihydropyridin-3-yl)-2-fluorophenyl)-N-(3-(4-methyl-1H-imidazol-1-yl)-5-(trifluoromethyl)phenyl)acetamide hydrochloride], the IC50 in assay [1] is under 100 nM.
In assay [1], `CCOc1cc(-c2ccc(CC(=O)Nc3ccc(OCCO)c(C(F)(F)F)c3)c(F)c2)c[nH]c1=O` [Example 13, 2-(4-(5-Ethoxy-6-oxo-1,6-dihydropyridin-3-yl)-2-fluorophenyl)-N-(4-(2-hydroxyethoxy)-3-(trifluoromethyl)phenyl)acetamide] had an IC50 of under 100 nM.
In assay [1], `CCOc1cc(-c2ccc(CC(=O)Nc3cnc(CC#N)c(C(F)(F)F)c3)c(F)c2)c[nH]c1=O` [Example 14, N-(6-(Cyanomethyl)-5-(trifluoromethyl)pyridin-3-yl)-2-(4-(5-ethoxy-6-oxo-1,6-dihydropyridin-3-yl)-2-fluorophenyl)acetamide hydrochloride] yielded an IC50 of 500 to 10000 nM.
As to `CCOc1cc(-c2ccc(CC(=O)Nc3ccc(Cl)c(C(F)(F)F)c3)c(F)c2)c[nH]c1=O` [Example 16, N-(4-Chloro-3-(trifluoromethyl)phenyl)-2-(4-(5-ethoxy-6-oxo-1,6-dihydropyridin-3-yl)-2-fluorophenyl)acetamide], the IC50 in assay [1] was under 100 nM.
Same read-out and setting: in the case of `CCOc1cc(-c2ccc(CC(=O)Nc3ccc(CN(C)C)c(C(F)(F)F)c3)c(F)c2)c[nH]c1=O` [Example 17, N-(4-((Dimethylamino)methyl)-3-(trifluoromethyl)phenyl)-2-(4-(5-ethoxy-6-oxo-1,6-dihydropyridin-3-yl)-2-fluorophenyl)acetamide hydrochloride] it was under 100 nM; in that of `CCOc1cc(-c2ccc(CC(=O)Nc3ccc(Cl)c(Cl)c3)c(F)c2)c[nH]c1=O` [Example 18, N-(3,4-Dichlorophenyl)-2-(4-(5-ethoxy-6-oxo-1,6-dihydropyridin-3-yl)-2-fluorophenyl)acetamide], 100 to 500 nM; in that of `CCOc1cc(-c2ccc(CC(=O)Nc3cc(C(C)(C)C(F)(F)F)on3)c(F)c2)c[nH]c1=O` [Example 19, 2-(4-(5-Ethoxy-6-oxo-1,6-dihydropyridin-3-yl)-2-fluorophenyl)-N-(5-(1,1,1-trifluoro-2-methylpropan-2-yl)isoxazol-3-yl)acetamide], under 100 nM.
With `CCOc1cc(-c2ccc(CC(=O)Nc3ccc(CN4CCN(CC)CC4)c(C(F)(F)F)c3)c(F)c2)c[nH]c1=O` [Example 21, 2-(4-(5-Ethoxy-6-oxo-1,6-dihydropyridin-3-yl)-2-fluorophenyl)-N-(4-((4-ethylpiperazin-1-yl)methyl)-3-(trifluoromethyl)phenyl)acetamide, dihydrochloride], the IC50 in assay [1] and in assay [2] was under 100 nM throughout.
`CCOc1cc(-c2ccc(CC(=O)Nc3cc(F)ccc3F)c(F)c2)c[nH]c1=O` [Example 22, N-(2,5-Difluorophenyl)-2-(4-(5-ethoxy-6-oxo-1,6-dihydropyridin-3-yl)-2-fluorophenyl)acetamide]: in assay [1], the IC50 was 500 to 10000 nM.
Regarding `CCOc1cc(-c2ccc(CC(=O)Nc3ccc(C(N)=O)c(C(F)(F)F)c3)c(F)c2)c[nH]c1=O` [Example 23], in assay [1], the IC50 lay within 100 to 500 nM.
Same read-out and setting: in the case of `CCOc1cc(-c2ccc(CC(=O)Nc3cc(C(F)(F)F)c(F)cc3F)c(F)c2)c[nH]c1=O` [Example 24] it was under 100 nM; in that of `CCOc1cc(-c2ccc(CC(=O)Nc3cc(C(F)(F)F)cc(C(F)(F)F)c3)c(F)c2)c[nH]c1=O` [Example 25], under 100 nM.
For `CCOc1cc(-c2ccc(CC(=O)Nc3cc(C(C)(C)C(F)(F)F)no3)c(F)c2)c[nH]c1=O` [Example 28, 2-(4-(5-Ethoxy-6-oxo-1,6-dihydropyridin-3-yl)-2-fluorophenyl)-N-(3-(1,1,1-trifluoro-2-methylpropan-2-yl)isoxazol-5-yl)acetamide], the concentration for half-maximal inhibition (IC50) (in assay [1]; with TT cells (setting [3]); in assay [2]) was under 100 nM in each case.
Take `CCOc1cc(=O)[nH]cc1-c1ccc(CC(=O)Nc2cnc(C(C)(C)CO)c(C(F)(F)F)c2)c(F)c1` [Example 31, 2-(4-(4-Ethoxy-6-oxo-1,6-dihydropyridin-3-yl)-2-fluorophenyl)-N-(6-(1-hydroxy-2-methylpropan-2-yl)-5-(trifluoromethyl)pyridin-3-yl)acetamide]: the IC50 (in assay [1]; in the assay with TT cells (setting [3]); in assay [2]) was under 100 nM throughout.
As for `CCOc1cc(=O)[nH]cc1-c1ccc(CC(=O)Nc2ccc(CC(C)(C)CO)c(C(F)(F)F)c2)cc1F` [Example 32, 2-(4-(4-Ethoxy-6-oxo-1,6-dihydropyridin-3-yl)-3-fluorophenyl)-N-(4-(3-hydroxy-2,2-dimethylpropyl)-3-(trifluoromethyl)phenyl)acetamide], the IC50 (in assay [1]; with TT cells (setting [3]); in assay [2]) was under 100 nM throughout.
As for `CCOc1cc(-c2ccc(CC(=O)Nc3cc(-n4cc(C)cn4)cc(C(F)(F)F)c3)c(F)c2)c[nH]c1=O` [Example 34, 2-(4-(5-ethoxy-6-oxo-1,6-dihydropyridin-3-yl)-2-fluorophenyl)-N-(3-(4-methyl-1H-pyrazol-1-yl)-5-(trifluoromethyl)phenyl)acetamide hydrochloride], the concentration for half-maximal inhibition (IC50) in assay [1] is under 100 nM; with TT cells (Homo sapiens, TT), 100 to 500 nM; in assay [2] it was 100 to 500 nM.
For the compound `CCOc1cc(-c2ccc(CC(=O)Nc3cc(-n4ccc(C)n4)cc(C(F)(F)F)c3)c(F)c2)c[nH]c1=O` [Example 35, 2-(4-(5-ethoxy-6-oxo-1,6-dihydropyridin-3-yl)-2-fluorophenyl)-N-(3-(3-methyl-1H-pyrazol-1-yl)-5-(trifluoromethyl)phenyl)acetamide hydrochloride], the half-maximal inhibitory concentration (IC50) in assay [1] was under 100 nM; with TT cells (Homo sapiens, TT), 100 to 500 nM; in assay [2], under 100 nM.
`CCOc1cc(-c2ccc(CC(=O)Nc3cc(-c4cn[nH]c4)cc(C(F)(F)F)c3)c(F)c2)c[nH]c1=O` [Example 36, N-(3-(1H-pyrazol-4-yl)-5-(trifluoromethyl)phenyl)-2-(4-(5-ethoxy-6-oxo-1,6-dihydropyridin-3-yl)-2-fluorophenyl)acetamide hydrochloride]: the IC50 in assay [1] is under 100 nM; with TT cells (Homo sapiens, TT) it was 100 to 500 nM; in assay [2], under 100 nM.
`CCOc1cc(-c2ccc(CC(=O)Nc3cc(-c4nn[nH]n4)cc(C(F)(F)F)c3)c(F)c2)c[nH]c1=O` [Example 44, N-(3-(2H-tetrazol-5-yl)-5-(trifluoromethyl)phenyl)-2-(4-(5-ethoxy-6-oxo-1,6-dihydropyridin-3-yl)-2-fluorophenyl)acetamide] showed an IC50 in assay [1] of under 100 nM.

(Values after patent US9789100B2, “Compounds as rearranged during transfection (RET) inhibitors” (GlaxoSmithKline Intellectual Property Development Limited, priority 2013, dated 2017).)
